Like-named read-outs stand apart in the source and are kept apart here.
Experiments:
[1] = methanol/water 15/85 (v/v), 37° C., pH 7, 75 rpm, cited from earlier work
[2] = Bulk density (not tapped); format: physicochemical; conditions: nanoparticle API lot
Description: (§1) Taxane nanoparticles produced by various supercritical carbon dioxide particle size reduction methods can have unique physical characteristics as compared to taxane nanoparticles produced by conventional particle size reduction methods using physical impacting or grinding, e.g., wet or dry milling, micronizing, disintegrating, comminuting, microfluidizing, or pulverizing. […] This bulk density range is generally lower than the bulk density of taxane particles produced by conventional means, and the SSA is generally higher than the SSA of taxane particles produced by conventional means. […] As used herein, the “specific surface area (SSA)” is the total surface area of the taxane nanoparticle per unit of taxane mass as measured by the Brunauer-Emmett-Teller (“BET”) isotherm by the following method: a known mass between 200 and 300 mg of the analyte is added to a 30 mL sample tube. […] The automated test is then carried out using the BETWIN® software package and the surface area of each sample is subsequently calculated. The bulk density measurement can be conducted by pouring the taxane nanoparticles into a graduated cylinder without tapping at room temperature, measuring the mass and volume, and calculating the bulk density.

[3] = Specific surface area (SSA) by BET isotherm; format: physicochemical; conditions: BET isotherm method, nanoparticle API lot
Description: as §1

[4] = Particle size of paclitaxel nanoparticles lots (ACCUSIZER 780); format: physicochemical; conditions: nanoparticle API lot
Protocol: Max. Concentration: 9000 particles/mL, No. containers: 1, Sensor Range: Summation, Lower Detection Limit: 0.5 μm, Flow Rate: 30 mL/min, No. Analysis pulls: 4, Time between pulls: 1 sec, Pull volume: 10 mL, Tare Volume: 1 mL, Prime volume: 1 mL, Include First Pull: Not Selected.
Vortexed for 5-10 minutes and sonicated in a water batch for 1 minute.
Filled a plastic bottle with filtered (0.22 μm) 0.1% w/w SDS solution and analyzed the Background.

[5] = Observation of paclitaxel nanoparticle crystal growth by light microscopy; format: physicochemical
[6] = test system: Göttingen minipigs; experiment: Dermal toxicity study (GLP, topical daily for 28 days); format: in vivo; conditions: topical daily for 28 days, 0.3, 1.0 and 3%
Protocol: The GLP-compliant study was conducted in Göttingen minipigs to characterize the toxicity of the formulations applied topically to 10% body surface area daily for 28 days. […] Reversibility of findings was also evaluated following a 2-week recovery period. Parameters evaluated included clinical observations, mortality and moribundity checks, dermal scoring, body weight, food consumption, eye examinations, test site photographs, electrocardiology, clinical pathology, bioanalysis and toxicokinetic evaluation, organ weights, macroscopic pathology and histopathology. There were no formulation-related effects on survival, clinical signs, dermal irritation, body weights, body weight gains, food consumption, ophthalmic findings, or cardiology parameters.

[7] = Solubility of paclitaxel in various solvents (HPLC); format: physicochemical
Protocol: Step “d” was continued for each vial for a total of 48 hours.

[8] = listed as paclitaxel nanoparticles lot used in the formulas listed in Table 3
[9] = listed as paclitaxel nanoparticles lot used in the formulas listed in Tables 16-19
[10] = in Aluminum sulfate 0.1-0.2% in water, @ 7 days, RT
[11] = in Ammonium lauryl sulfate 2% in water, @ 3 days, RT
[12] = in Benzalkonium chloride (50%) 2% in water, @ 7 days & 21 days, RT
[13] = in CARBOPOL ULTREZ 10 (with Ammonium hydroxide as neutralizer) 0.5% in water, @ 8 days & 21 days, RT
[14] = in Castor Oil 100%, @ 24 hrs & 9 days, RT
[15] = in Dimethicone, 1000 cSt 100%, @ 24 hrs & 6 days, RT
[16] = in FOMBLIN HC04 100%, @ 4, 7 & 13 days, RT
[17] = in Hydroxyethyl cellulose 1% in water, @ 7 days, RT
[18] = in Hydroxypropyl methylcellulose 1% in water, @ 3 days, RT
[19] = in Lecithin 1% in water, @ 24 hrs, RT
[20] = in Light Mineral Oil NF 100%, @ 3 days, RT & 40 C.
[21] = in Magnesium nitrate 5% in water, @ 3 days, RT
[22] = in Mannitol 5% in water, @ 7 days, RT
[23] = in Mineral Oil USP (heavy) 100%, @ 3 days, RT & 40 C.
[24] = in PEG 400 10% in water, @ 22 days, RT & 60 C.
[25] = in Poloxamer 188 2% in water, @ 7 days, RT
[26] = in Poloxamer 407 2% in water, @ 5 & 7 days, RT
[27] = in Polyoxyl 40 Hydrogenated Castor Oil (KOLLIPHOR RH40) 1% in water, @ 6 days, RT
[28] = in Polysorbate 80 0.5% in Saline, @ 7 days, RT & 60 C.
[29] = in Polysorbate 80 0.5% in water, @ 22 days, RT & 60 C.
[30] = in Povidone 1% in water, @ 7 days & 21 days, RT
[31] = in Proline 3% in water, @ 7 days, RT
[32] = in Purified Water 100%, @ 5 days, RT & 60 C.
[33] = in ST-Cyclomethicone 5 NF 100%, @ 24 hrs & 13 days, RT
[34] = in Saline 0.9% NaCl in water, @ 7 days, RT & 60 C.
[35] = in Sodium lauryl sulfate 2% in water, @ 7 days, RT
[36] = in Sodium phosphate monobasic 0.75% in water, @ 7 days, RT
[37] = in Sorbitol 5% in water, @ 7 days, RT
[38] = in Vitamin E TPGS 0.5% in water, @ 6 days, RT
[39] = in Zinc acetate […] in water, @ 7 days, RT

CC(=O)O[C@@]12CO[C@@H]1C[C@H](O)[C@@]1(C)C(=O)[C@H](O)C3=C(C)[C@@H](OC(=O)[C@H](O)[C@@H](NC(=O)OC(C)(C)C)c4ccccc4)C[C@@](O)([C@@H](OC(=O)c4ccccc4)[C@H]21)C3(C)C [Docetaxel nanoparticles, docetaxel]
dissolution rate, % dissolved in 30 minutes ([1]; nanoparticles made by milling): 9%
dissolution rate, % dissolved in 30 minutes ([1]; nanoparticles made by the supercritical carbon dioxide method): 27%

CC(=O)O[C@H]1C(=O)[C@@]2(C)[C@H]([C@H](OC(=O)c3ccccc3)[C@]3(O)C[C@H](OC(=O)[C@H](O)[C@@H](NC(=O)c4ccccc4)c4ccccc4)C(C)=C1C3(C)C)[C@]1(OC(C)=O)CO[C@@H]1C[C@@H]2O [Paclitaxel nanoparticles lot used in formulas listed in Tabl] [listing 1 of 2 here]
bulk density (not-tapped) [2, 8]: 0.05 g/mL
specific surface area (SSA) [3, 8]: 41.24 m^2/g
Particle size (number-weighted differential distribution) Mean [4]: 0.861 μm
Particle size (number-weighted differential distribution) Median [4]: 0.710 μm
Particle size (number-weighted differential distribution) Mode [4]: 0.572 μm

CC(=O)O[C@H]1C(=O)[C@@]2(C)[C@H]([C@H](OC(=O)c3ccccc3)[C@]3(O)C[C@H](OC(=O)[C@H](O)[C@@H](NC(=O)c4ccccc4)c4ccccc4)C(C)=C1C3(C)C)[C@]1(OC(C)=O)CO[C@@H]1C[C@@H]2O [Paclitaxel nanoparticles lot used in formulas listed in Tabl] [listing 2 of 2 here]
bulk density (not-tapped) [2, 9]: 0.09 g/mL
specific surface area (SSA) [3, 9]: 26.72 m^2/g
Particle size (number-weighted differential distribution) Mean [4]: 0.83 μm

CC(=O)O[C@H]1C(=O)[C@@]2(C)[C@H]([C@H](OC(=O)c3ccccc3)[C@]3(O)C[C@H](OC(=O)[C@H](O)[C@@H](NC(=O)c4ccccc4)c4ccccc4)C(C)=C1C3(C)C)[C@]1(OC(C)=O)CO[C@@H]1C[C@@H]2O [Paclitaxel nanoparticles, paclitaxel]
Crystal size (visual observation by light microscopy) [5, 10]: > 5 μm
Needle shaped crystals observed? (visual observation by light microscopy) [5, 10]: Yes
Crystal size (visual observation by light microscopy) [5, 11]: > 5 μm
Needle shaped crystals observed? (visual observation by light microscopy) [5, 11]: Yes
Crystal size (visual observation by light microscopy) [5, 12]: < 5 μm
Needle shaped crystals observed? (visual observation by light microscopy) [5, 12]: No
Crystal size (visual observation by light microscopy) [5, 13]: < 5 μm
Needle shaped crystals observed? (visual observation by light microscopy) [5, 13]: No
Crystal size (visual observation by light microscopy) [5, 14]: < 5 μm
Needle shaped crystals observed? (visual observation by light microscopy) [5, 14]: No
Crystal size (visual observation by light microscopy) [5, 15]: < 5 μm
Needle shaped crystals observed? (visual observation by light microscopy) [5, 15]: No
Crystal size (visual observation by light microscopy) [5, 16]: < 5 μm
Needle shaped crystals observed? (visual observation by light microscopy) [5, 16]: No
Crystal size (visual observation by light microscopy) [5, 17]: > 5 μm
Needle shaped crystals observed? (visual observation by light microscopy) [5, 17]: Yes
Crystal size (visual observation by light microscopy) [5, 18]: > 5 μm
Needle shaped crystals observed? (visual observation by light microscopy) [5, 18]: Yes
Crystal size (visual observation by light microscopy) [5, 19]: > 10 μm
Needle shaped crystals observed? (visual observation by light microscopy) [5, 19]: Yes
Crystal size (visual observation by light microscopy) [5, 20]: < 5 μm
Needle shaped crystals observed? (visual observation by light microscopy) [5, 20]: No
Crystal size (visual observation by light microscopy) [5, 21]: > 5 μm
Needle shaped crystals observed? (visual observation by light microscopy) [5, 21]: Yes
Crystal size (visual observation by light microscopy) [5, 22]: > 5 μm
Needle shaped crystals observed? (visual observation by light microscopy) [5, 22]: Yes
Crystal size (visual observation by light microscopy) [5, 23]: < 5 μm
Needle shaped crystals observed? (visual observation by light microscopy) [5, 23]: No
Crystal size (visual observation by light microscopy) [5, 24]: > 5 μm
Needle shaped crystals observed? (visual observation by light microscopy) [5, 24]: Yes
Crystal size (visual observation by light microscopy) [5, 25]: > 5 μm
Needle shaped crystals observed? (visual observation by light microscopy) [5, 25]: Yes
Crystal size (visual observation by light microscopy) [5, 26]: < 5 μm
Needle shaped crystals observed? (visual observation by light microscopy) [5, 26]: No
Crystal size (visual observation by light microscopy) [5, 27]: < 5 μm
Needle shaped crystals observed? (visual observation by light microscopy) [5, 27]: Yes
Crystal size (visual observation by light microscopy) [5, 28]: > 5 μm
Needle shaped crystals observed? (visual observation by light microscopy) [5, 28]: Yes
Crystal size (visual observation by light microscopy) [5, 29]: < 5 μm
Needle shaped crystals observed? (visual observation by light microscopy) [5, 29]: Yes
Crystal size (visual observation by light microscopy) [5, 30]: < 5 μm
Needle shaped crystals observed? (visual observation by light microscopy) [5, 30]: Yes
Crystal size (visual observation by light microscopy) [5, 31]: > 5 μm
Needle shaped crystals observed? (visual observation by light microscopy) [5, 31]: Yes
Crystal size (visual observation by light microscopy) [5, 32]: > 5 μm
Needle shaped crystals observed? (visual observation by light microscopy) [5, 32]: Yes
Crystal size (visual observation by light microscopy) [5, 33]: < 5 μm
Needle shaped crystals observed? (visual observation by light microscopy) [5, 33]: No
Crystal size (visual observation by light microscopy) [5, 34]: > 10 μm
Needle shaped crystals observed? (visual observation by light microscopy) [5, 34]: Yes
Crystal size (visual observation by light microscopy) [5, 35]: > 5 μm
Needle shaped crystals observed? (visual observation by light microscopy) [5, 35]: Yes
Crystal size (visual observation by light microscopy) [5, 36]: > 5 μm
Needle shaped crystals observed? (visual observation by light microscopy) [5, 36]: Yes
Crystal size (visual observation by light microscopy) [5, 37]: > 5 μm
Needle shaped crystals observed? (visual observation by light microscopy) [5, 37]: Yes
Crystal size (visual observation by light microscopy) [5, 38]: < 5 μm
Needle shaped crystals observed? (visual observation by light microscopy) [5, 38]: Yes
Crystal size (visual observation by light microscopy) [5, 39]: > 5 μm
Needle shaped crystals observed? (visual observation by light microscopy) [5, 39]: Yes
crystal growth of paclitaxel nanoparticles ([5]; in any of the hydrophobic carriers): did not grow
crystal growth of paclitaxel nanoparticles ([5]; in aqueous solutions of benzalkonium chloride, CARBOPOL ULTREZ 10, or poloxamer 407): did not grow
effect of the presence of the paclitaxel nanoparticles in the formulations on dermal irritation [6]: negligible effect

CC(=O)O[C@H]1C(=O)[C@@]2(C)[C@H]([C@H](OC(=O)c3ccccc3)[C@]3(O)C[C@H](OC(=O)[C@H](O)[C@@H](NC(=O)c4ccccc4)c4ccccc4)C(C)=C1C3(C)C)[C@]1(OC(C)=O)CO[C@@H]1C[C@@H]2O [Paclitaxel, paclitaxel]
Paclitaxel Solubility at RT ([7]; in Benzyl Alcohol, NF): 17.02% w/w
Paclitaxel Solubility at RT ([7]; in Diethylene Glycol Monoethyl Ether, NF (TRANSCUTOL P)): 33.10% w/w
Paclitaxel Solubility at RT ([7]; in Diisopropyl Adipate (CERAPHYL 230)): 3.51% w/w
Paclitaxel Solubility at RT ([7]; in Dimethyl Isosorbide): 38.22% w/w
Paclitaxel Solubility at RT ([7]; in Hexylene Glycol): 4.07% w/w
Paclitaxel Solubility at RT ([7]; in Isopropyl Myristate, NF): 0.048% w/w
Paclitaxel Solubility at RT ([7]; in Medium Chain Triglycerides, NF): 0.32% w/w
Paclitaxel Solubility at RT ([7]; in Mineral Oil, USP (heavy)): 0.3 ppm
Paclitaxel Solubility at RT ([7]; in Polyethylene Glycol 400, NF): 22.30% w/w
Paclitaxel Solubility at RT ([7]; in Propylene Carbonate): 4.74% w/w
Paclitaxel Solubility at RT ([7]; in Propylene Glycol, USP): 0.88% w/w
Paclitaxel Solubility at RT ([7]; in Purified Water, USP): <0.05 ppm
Paclitaxel Solubility at RT ([7]; in Purified Water, USP, listed as paclitaxel): less than 0.05 ppm
Paclitaxel Solubility at RT ([7]; in Super Refined Oleic Acid, NF): 0.041% w/w
Paclitaxel Solubility at RT ([7]; in Super Refined Oleyl Alcohol, NF): 0.38% w/w
